*1 amine or outer side, *2 acyl side, *3 side chain or, on linkers, in order; H or OH if unused. Where a SMILES comes first, the peptide text is derived from it. Bridges are numbered along the chain shown (N, C = ends). Roman numbers before positions name the chains, in order. [ ]: non-standard residue; d: D form. Actinocin(9to1) = Cc1c2oc3c(C)ccc(C(=O)[*:1])c3nc-2c(C(=O)[*:2])c(N)c1=O; NMeV = CN[C@H](C(=O)O)C(C)C; Sar = CNCC(=O)O
Legend:
[1] = tested on: rat liver microsomes; assay: Stimulation of NADPH oxidation by rat hepatic microsomal incubations; format: biochemical; details: for percentage stimulation of NADPH oxidation: (drug-stimulated rate - basal rate)/basal rate × 100; for NADPH oxidation: measured at 340 nm, average ± standard error of triplicate
Excerpt: It has been reported that the quinone imino chromophore of actinomycin can be subjected to enzyme-catalyzed single-electron reduction to give free-radical species that generate superoxides by reacting with molecular oxygen. The process needs a reductive cofactor NADPH, which is oxidized to NADP^+ during the process, giving a change in the absorbance at 340 nm that can be measured spectrophotometerically. Alternatively, the superoxides generated during the process may be allowed to react with epinephrine to produce adrenochrome, a chromophore with strong absorbance at 480 nm that can be measured spectrophotmetrically.
The superoxide formations were studied via NADPH oxidation catalyzed by AMD analogues in the presence of rat liver microsomes. […] The process of adrenochrome formation is inhibited by superoxide dismutase, confirming that superoxide is indeed generated in these systems.
^a The percentage stimulation = (drugstimulated rate basal rate)/basa
rate × 100 and is shown in parentheses. NADPH oxidation was measure
at 340 nm and adrenochrome formation was measured at 489 nm; the values
are average ± standard errors of triplicate analyses. ^b SOD,

[2] = tested on: supercoiled closed-circular pBR322 DNA; assay: Cleavage of closed circular pBR322 DNA; format: biochemical; details: for Percentage of closed circular pBR322 DNA cleaved: 20° C., 1 h, Na2S2O4, FeCl2
Procedure: The cleavage of DNA was followed by monitoring of the conversion of supercoiled closed-circular pBR322 DNA to open-circular DNA (analyzed by agarose gel electrophoresis and quantitated by staining with 0.5 ug/mL of ethidium bromide for 30 min and densitometry; (Table II). SAD and RAD show strong DNA-cleaving ability in the presence of sodium hydrosulfite and ferrous chloride. Presumably, sodium hydrosulfite acts as a reducing agent and regenerates Fe(II) from Fe(III) to produce a continuous source of the active metal ion. When the DNA-cleaving reaction with the analogues was performed at 20° C., the ratio of cleaved DNA (open circular form DNA versus closed circular DNA) was almost maximum within 1 h. […] Cleavage of DNA by the analogues is aided by the actinomycin chromopeptide moiety, which acts as a site-specific binder to DNA, and is effected by the aminoquinone function which is chelated to the ferrous ion during the process, and this is the likely candidate which generates the radical species.
Plasmid DNA pBR322 (0.5 ug) was dissolved in /8 μL of a reaction buffer (5 mM […], 10 mM Tris-HCl). To this solution, 1 μL of the 10 mM aqueous solution of the agent containing 1 mM FeCl2 was added. The mixture was incubated for 0.5-2 h at 20° or 37° C. Then, the incubation mixture was mixed with 10 uL of sample loading buffer (50% glycerin in 2 X Boyer's buffer containing 0.01% bromophenol blue). Finally, 5 uL of the mixture was analyzed by 0.7% agarose gel electrophoresis (120 V, Boyer's buffer; the migration distance of bromophenol blue was 5.0 cm). The gel was stained with […] of ethidium bromide and then quantitated by densitometry.
^a Ten microliters of 200 u M pBR322 DNA nucelotides in UM 10 mM
TrisHCl (pH 7.8) and 50 mM NaCl, containing 4 mM Na2 --S2
O4 and 100 μM FeCl2, was incubated with drug concentration a
20° C. for 1 h; the reaction mixture was kept saturated with air
throughout the incubation period.
^b Percentage of DNA was calculated from the amounts of openand
closedcir- cular DNA in the incubation mixture.

[3] = tested on: human colon carcinoma HT-29 cell line; assay: Cell viability by soft agar cloning; format: cell-based; details: 2 h treatment at 37° C., from plot of concentration vs colony formation
Procedure: Furthermore, the activity of the analogues against a human colon carcinoma HT-29 cell line in culture was evaluated. After the cells were treated for 2 h with 0.01-10.0 uM of the drugs at 37° C., the cells were washed with ice-cold PBS (phosphate buffered saline), and the cell viability was assessed by soft agar cloning. Cells viability was expressed as the percentage of colonies from the drug-treated cells relative to control cells after correcting for the cloning efficiency, which ranged from 60% to 80%.

[4] = tested on: P388/ADR (adriamycin resistant) leukemia; assay: Antitumor activity in vivo, P388/ADR leukemia; design: species or system mice; details: at optimal dose, ip days 1, 5, 9
Procedure: The analogues were also tested against P388/ADR murine leukemia following the standard protocol (Table VI).
ILS = percent increase in life span.

[5] = tested on: B16 melanoma; assay: In vivo antitumor activity against B16 melanoma; design: species or system BDF1 mice; details: for % ILS / survivors on day 65/total injected / MST (range), median survival time: at optimal dose, ip days 1, 5, 9; for MST (range), median survival time: range of days of death; for optimal dose: ip, days 1, 5, 9
Procedure: ^a 0.2 mL of 1:5 (weight/volume) brei of B16 melanoma implanted
ip on day 0 in groups of nine BDF1 mice. Drugs administered ip^b
MST (range), median survival time in days (range of days for death of
individual animal). ^c % ILS (surv), percent increase in life span
(survivors on day 65/total injected).

[6] = tested on: CX-1 human colon adenocarcinoma; assay: Chemotherapy of human colon CX-1 tumor heterotransplanted in nude mice; format: in vivo, human tumor in athymic mice; details: for response of CX-1 tumor to treatment (in words): three iv treatments weekly from 15th day of transplant, at the doses tested; for % T/C, optimal: TST 15, observed day 22
Procedure: Tables XI and XII show the effectiveness of SAD (2) and RAD (3b and 3c) against CX-1 human colon adenocarcinoma heterotransplanted into athymic mice, with three iv treatments with drugs on a weekly schedule starting on the 15th day of tumor transplant. AMD and the analogues were tested at doses of 45 and 60 ug/kg.
^a -, % T/C high than 50%; ±, % T/C close to 50%; +, % T/C from 50
to 35%; ++, % T/C from 35% to 20%; +++, % T/C lower than 20%; ++++,
regression of the tumor to a volume lower than 10% of the volume at the
start of treatment. ^b Statistically significant as evaluated by the
^a Intravenous treatment, once a week for three weeks; eight mice per
group. ^b TST; number of days between tumor transplant and starting o
treatment. ^c Numbers in parentheses; day of observation after the […]

[7] = dose 45 μg/kg iv once a week for three weeks
[8] = dose 60 μg/kg iv once a week for three weeks

Row | Compound | percentage stimulation of NADPH oxidation [1] [%] | NADPH oxidation [1] | Percentage of closed circular pBR322 DNA cleaved [2] [%] | Percentage of closed circular pBR322 DNA cleaved ([2]; concn 25 M (so in the source)) [%] | Percentage of closed circular pBR322 DNA cleaved ([2]; concn 50 M (so in the source)) [%] | Percentage of closed circular pBR322 DNA cleaved ([2]; concn 100 M (so in the source)) [%] | LD90, drug concentration producing 90% reduction in cell viability [3] [µM] | tumor free survivors/total on day 60 [4] | % ILS [5] [%] | survivors on day 65/total injected [5] | MST (range), median survival time [5] | optimal dose [5] [μg/kg per inj] | response of CX-1 tumor to treatment (in words) [6] | % T/C, optimal [6, 7] [%] | % T/C, optimal [6, 8] [%] | DNA cleaving efficiency relative to RAD III (3c) and SAD (2) [2]
1 | Cc1c2oc3c(C)c(O)c(N)c(C(=O)N[C@@H]4C(=O)N[C@H](C(C)C)C(=O)N5CCC[C@H]5C(=O)N(C)CC(=O)N(C)[C@@H](C(C)C)C(=O)O[C@@H]4C)c3nc-2c(C(=O)N[C@@H]2C(=O)N[C@H](C(C)C)C(=O)N3CCC[C@H]3C(=O)N(C)CC(=O)N(C)[C@@H](C(C)C)C(=O)O[C@@H]2C)c(N)c1=O [SAD (2)] | 606 | 64.3 ± 2.11 nmol/min per mg of protein | 35 | 50 | 50 | 65 | 0.1 | 3/8 | 96 | 4/9 | 57(33-61) days | 300 | responded fairly well to SAD treatment but at 60 ug/kg only |  |  | 
2 | Cc1c2oc3c(C)c4oc(-c5ccccc5)nc4c(C(=O)N[C@@H]4C(=O)N[C@H](C(C)C)C(=O)N5CCC[C@H]5C(=O)N(C)CC(=O)N(C)[C@@H](C(C)C)C(=O)O[C@@H]4C)c3nc-2c(C(=O)N[C@@H]2C(=O)N[C@H](C(C)C)C(=O)N3CCC[C@H]3C(=O)N(C)CC(=O)N(C)[C@@H](C(C)C)C(=O)O[C@@H]2C)c(N)c1=O [RAD II (3b)] | 610 | 65.0 ± 5.95 nmol/min per mg of protein |  |  |  |  | 0.2 | 1/8 | 103 | 5/9 | 59(53-59) days | 300 | marginal but positive activity | 48 | 24 | 
3 | Cc1c2oc3c(C)ccc(C(=O)N[C@@H]4C(=O)N[C@H](C(C)C)C(=O)N5CCC[C@H]5C(=O)N(C)CC(=O)N(C)[C@@H](C(C)C)C(=O)O[C@@H]4C)c3nc-2c(C(=O)N[C@@H]2C(=O)N[C@H](C(C)C)C(=O)N3CCC[C@H]3C(=O)N(C)CC(=O)N(C)[C@@H](C(C)C)C(=O)O[C@@H]2C)c(N)c1=O [AMD (1), Actinomycin D] (I: T[dV]P[Sar][NMeV] / II: T[dV]P[Sar][NMeV]; ester I:1-I:C, II:1-II:C; linker I:N-II:N via Actinocin(9to1)) | 9.9 | 10.01 ± 0.90 nmol/min per mg of protein | 10 |  |  | 22 |  |  | 48 | 2/9 | 43(36-54) days | 250 | ineffective | 34 | 36 | about 30%
4 | Cc1c2oc3c(C)c4oc(CC(=O)NCCCCN)nc4c(C(=O)N[C@@H]4C(=O)N[C@H](C(C)C)C(=O)N5CCC[C@H]5C(=O)N(C)CC(=O)N(C)[C@@H](C(C)C)C(=O)O[C@@H]4C)c3nc-2c(C(=O)N[C@@H]2C(=O)N[C@H](C(C)C)C(=O)N3CCC[C@H]3C(=O)N(C)CC(=O)N(C)[C@@H](C(C)C)C(=O)O[C@@H]2C)c(N)c1=O [RAD III (3c)] | 812 | 87.1 ± 7.1 nmol/min per mg of protein | 40 | 45 | 50 | 58 | 5.0 | 2/8 | 114 | 6/9 | 62(53-61) days | 300 | responded remarkably well to the treatment of RAD III at doses of 45 and 60 ug/kg | 5 | 3 | 
